The target in test [1] is T1, PLCδ-PH (Rattus norvegicus, UniProt P10688).
T1 construct: initiator methionine (N); made in house; host or cells: Escherichia coli (pET11a, T7 system)
T1 sequence (P10688 20-136): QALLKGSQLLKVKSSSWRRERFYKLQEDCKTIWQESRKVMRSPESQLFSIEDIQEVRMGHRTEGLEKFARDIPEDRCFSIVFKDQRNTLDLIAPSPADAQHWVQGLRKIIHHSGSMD
The experiment in a line: Spin-column competition assay for 3H-I(145)P3 binding to PLCδ-PH. To be noted: for competition for I(145)P3 binding by lipid vesicles: lipid at 5% in DMPC vesicles or pure DMPC, assuming 50% of lipid on the surface. The procedure: A spin-column based competition assay was employed to determine relative affinities of other inositol polyphosphates for PLCδ-PH. […] The sample (40 μl) was then applied to a Biogel P6 gel filtration spin-column. […] Each curve represents the mean of two or more experiments.
The sample was then applied to a pre-spun 1 ml spin-column containing Biogel P6 desalting medium. The spin-column was then centrifuged for 4 minutes at 900 g. Essentially all of the protein was determined to pass through the column under these conditions, and no significant counts were seen to pass through the column in the absence of protein. After spinning, all of the material that passed through the column was added to scintillation fluid for counting. Counts were normalized to those obtained in the absence of competitor, and plotted as fraction of maximal binding. […]
Values for which a precise number is given represent the mean of at least two experiments.

Test [2] relates to any PH domain (PLCδ-PH, Dyn-PH, PlecN-PH). The experiment in a line: Centrifugation-based assay of PH domain binding to lipid vesicles. To be noted: lipid at 5% in DMPC vesicles. The method, then: Attempts to detect PH domain association with lipid vesicles were performed exactly as described by Harlan, J. E. et al., Nature 371, 168-170, 1994. In addition to using the BCA protein assay reagent, for which lipid blanks were rather high compared with the values expected for the protein concentrations employed, we also measured OD278 of the supernatants after addition of SDS in order to detect removal of protein upon pelleting vesicles. […] Initially, we performed a centrifugation-based assay, using the conditions described by Harlan, J. E. et al., Nature 371, 168-170, 1994. […] Similarly, we were unable to detect association of any of the PH domains with the same vesicles by using size-exclusion chromatography to separate protein and lipid. Any complexes between the PH domains and these vesicles therefore form with low affinity and/or have fast dissociation kinetics, such that they dissociate in the separation methods employed.

Test [3] has as its target T2, PLCδ-PH (PH domain of rat PLC-δ1) (Rattus norvegicus, UniProt P10688).
T2 construct: initiator methionine (N); made in house; host or cells: Escherichia coli (pET11a, T7 system)
T2 sequence (P10688 20-136): T1 sequence (P10688 20-136)
The experiment in a line: Isothermal titration calorimetry of inositol polyphosphate / PIP2 vesicle binding to PLCδ-PH. The method, then:
The resulting titration curve was fit using Omega software (Wiseman et al., 1989).
All experiments utilized the OMEGA instrument from MicroCal (Wiseman, T. et al., Anal. Biochem. 179, 131-137, 1989), in the laboratory of Prof. Julian Sturtevant at Yale. Titrations were performed at 25° C. in 50 mM MOPS, 100 mM NaCl, pH 6.8 or 100 mM NH4OAc at pH 6.8. […] For each titration, PH domain solution was dialyzed exhaustively against the buffer used for dilution of highly concentrated stocks of ligand. Heats for dilution of the ligand solutions were determined in separate titrations of ligand into buffer solution present in the cell.
Higher concentrations were employed for weaker binding events. […] Stoichiometry, binding constant (Kβ) and ΔH were all allowed to float in the fitting procedure.
A titration curve such as that to an equation describing a simple-binding reaction (Wiseman, T. et al., Anal. Biochem. 179, 131-137, 1989). From this fit, values for the binding constant, stoichiometry and ΔH for the binding reaction are ascertained. […] Ferris, C. D. et al, Nature, 342, 87-89, 1989.

Test [4] addresses T3, Dyn-PH (PH domain of dynamin) (Homo sapiens, UniProt Q05193).
T3 construct: The PH domains from PLC-δ1, and dynamin, as well as the N-terminal PH domain of pleckstrin; made in house; host or cells: Escherichia coli (T7 system)
T3 sequence (Q05193 519-625 limits assumed): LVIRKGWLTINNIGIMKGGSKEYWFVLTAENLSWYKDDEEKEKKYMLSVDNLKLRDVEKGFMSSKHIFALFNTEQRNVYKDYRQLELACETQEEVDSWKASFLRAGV
As to the kind of experiment: Gel filtration of 3H-labeled IP3 with PH domain. To be noted: PH domain 10 μM, IP3 20 μM. It is filed as binding. The procedure:
(§1) For gel-filtration studies, PH domain at 10 μM was mixed with 20 μM IP3, containing 100 nCi of the appropriate ^3H-labeled isomer. A 200 μl sample was applied to a BioRad BiogelP6 desalting column, and 40 fractions of 300 μl were collected. A Bio-Rad protein assay was performed on […] of each fraction to determine the elution position of the protein, and scintillation counting of the remainder was used to detect the elution positions of IP3. Experiments were performed in either 50 mM MOPS, 100 mM NaCl, pH 6.8, or 100 mM NH4OAc, pH 6.8.
(In general: In gel filtration, larger molecules generally elute earlier.)

Test [5] deals with T4, PlecN-PH (N-terminal PH domain of pleckstrin) (Homo sapiens, UniProt P08567).
T4 construct: residues 1-110 of pleckstrin (PlecN-PH); initiator methionine (N); made in house; host or cells: Escherichia coli (pET11a, T7 system)
T4 sequence (P08567 1-110): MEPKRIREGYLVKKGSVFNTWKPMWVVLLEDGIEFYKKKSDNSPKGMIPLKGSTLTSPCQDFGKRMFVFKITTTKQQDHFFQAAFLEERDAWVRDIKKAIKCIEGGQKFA
As to the kind of experiment: Gel filtration of 3H-labeled IP3 with PH domain. Type of test: binding. To be noted: PH domain 10 μM, IP3 20 μM. The method, then:
as §1

Test [6] addresses T1, PLCδ-PH. The experiment in a line: Gel filtration of 3H-labeled IP3 with PH domain. It is filed as binding. To be noted: PH domain 10 μM, IP3 20 μM. The method, then: as §1
Where [7] appears, read: ratio of molar excess for 50% competition to that of unlabeled I(145)P3, multiplied by 0.2 μM, read-out: KD (μM) by competition assay.
[8] abbreviates: from concentrations required to reduce 3H-I(145)P3 binding by 50%, read-out: KD from competition assay.

Values joined by “and” are separate entries in the source; they are usually repeats but may differ in a detail not shown here. Equal entries are not always repeated. “Also recorded” adds a separate entry of the source. Where two headings read alike, the source gives them in different places.

Turning to phosphatidylserine [PS], in test [1], the “competition for I(145)P3 binding by lipid vesicles” value (“competition for I(145)P3 binding” for short) is “no detectable competition; also recorded: did not compete”. Moreover, the binding to vesicles result in test [2] is “no binding”.

Turning to `O=P(O)(O)O[C@@H]1C(O)[C@@H](OP(=O)(O)O)[C@@H](O)C(O)[C@H]1O` (stereo partly drawn) [D-I(24)P2], in test [1] (setting [7]), the Kd (commonly the constant that tells how readily two partners part at equilibrium) was more than 12 µM.

With `O=P(O)(O)O[C@@H]1[C@@H](O)[C@H](OP(=O)(O)O)[C@@H](OP(=O)(O)O)[C@@H](O)[C@H]1OP(=O)(O)O` [D-I(1346)P4], the Kd in test [1] (setting [7]) turned out to be 5.3 µM.

phosphatidylinositol [PI]: the “competition for I(145)P3 binding” value in test [1] is given as “no detectable competition; also recorded: did not compete”. For the same compound, in test [2], the binding to vesicles result is recorded as “no binding”.

Consider `O=P(O)(O)O[C@H]1[C@H](OP(=O)(O)O)[C@@H](OP(=O)(O)O)[C@@H](O)[C@@H](O)[C@@H]1OP(=O)(O)O` [D-I(3456)P4], for which the dissociation constant (Kd) in test [1] (setting [7]) came to 3.2 µM.

Turning to `O=P(O)(O)O[C@@H]1[C@@H](O)[C@@H](O)[C@@H](OP(=O)(O)OC[C@H](O)CO)[C@H](O)[C@H]1OP(=O)(O)O` [GPIP2, 1-(a-glycerophosphoryl)-D-inositol-4,5-bisphosphate], the dissociation constant (Kd) in test [1] (PIP2: 5% in DMPC vesicles, assuming 50% available, read-out: KD from competition assay) is 0.4 µM; in test [1] (setting [7]), 0.45 µM; in test [3] (ITC, read-out: KD (dissociation constant)) it was 0.4 µM; in test [3] (individual titrations, 25° C, pH 6.8, read-out: KD), 0.32 µM and 0.4 µM; in test [3] (mean of the titrations, read-out: KD), 0.36 ± 0.06 µM. Further, in test [1] (relative to I(145)P3 binding to PLCδ-PH), the “binding weaker than I(145)P3” value is reported as “two-fold”. For the same compound, in test [3] (PIP2 in vesicles), the “binding affinity in words” value is reported as “submicromolar affinities”. The ΔG is -8.86 kcal/M and -8.72 kcal/M in test [3] (individual titrations, 25° C); -8.79 ± 0.10 kcal/M in test [3] (mean of the titrations). Besides, the ΔH in test [3] (individual titrations, 25° C) is -13.5 ± 0.1 kcal/M and -13.2 ± 0.1 kcal/M; in test [3] (mean of the titrations) it was -13.4 ± 0.2 kcal/M. Further, the ΔS was −15.6 cal · M^−1 · K^−1 and −15.2 cal · M^−1 · K^−1 in test [3] (individual titrations, 25° C); −15.4 ± 0.3 cal · M^−1 · K^−1 in test [3] (mean of the titrations). For the same compound, the Stoichiometry n in test [3] (individual titrations, 25° C, pH 6.8, quoted for IPn as the ligand, PIP2 in vesicles assuming 50% available) is 1.08 ± 0.01 and 1.14 ± 0.01; in test [3] (mean of the titrations), 1.11 ± 0.04.

On to `O=P(O)(O)O[C@H]1[C@H](O)[C@@H](OP(=O)(O)O)[C@H](OP(=O)(O)O)[C@@H](OP(=O)(O)O)[C@H]1O` [D-I(1345)P4], for which the equilibrium dissociation constant (Kd) in test [1] (setting [7]) was more than 2 µM.

For `O=P(O)(O)O[C@H]1[C@H](OP(=O)(O)O)[C@@H](OP(=O)(O)O)[C@H](O)[C@@H](O)[C@H]1OP(=O)(O)O` [D-I(1256)P4], in test [1] (setting [7]), the Kd turned out to be 12 µM.

Consider `O=P(O)(OCC(O)CO)OC1C(O)C(O)C(O)C(O)C1O` (centres unmarked) [GPI, 1-(a-glycerophosphoryl)-inositol], for which the Kd in test [1] (setting [7]) is more than 60 µM.

Turning to `O=P(O)(O)O[C@@H]1[C@@H](O)[C@H](OP(=O)(O)O)[C@@H](OP(=O)(O)O)[C@H](O)[C@@H]1O` [L-I(145)P3], the Kd was found to be 13 µM in test [1] (setting [8]) and 8.1 µM in test [1] (setting [7]).

As for `O=P(O)(O)O[C@@H]1[C@@H](O)[C@H](O)[C@H](O)[C@H](O)[C@H]1OP(=O)(O)O` [D-I(45)P2], the Kd in test [1] (setting [8]) is more than 50 µM; in test [1] (setting [7]) it was more than 12 µM.

`O=S(=O)(O)OC1C(OS(=O)(=O)O)C(OS(=O)(=O)O)C(OS(=O)(=O)O)C(OS(=O)(=O)O)C1OS(=O)(=O)O` (centres unmarked) [I(SO4)6, inositol hexasulfate]: the equilibrium dissociation constant (Kd) in test [1] (setting [7]) was more than 60 µM.

For `O=P(O)(O)OC1C(O)C(O)C(OP(=O)(O)O)C(OP(=O)(O)O)C1O` (single isomer, unassigned) [D-I(245)P3], the figures for the equilibrium dissociation constant (Kd) in test [1] (setting [8]) and in test [1] (setting [7]) were 7.5 µM and 4.7 µM, respectively.

Consider `CCCCCCCCCCCCCC(=O)OC[C@H](COP(=O)([O-])OCC[N+](C)(C)C)OC(=O)CCCCCCCCCCCCC` [DMPC, dimyristoylphosphatidylcholine], for which the entries for the “competition for I(145)P3 binding” value in test [1] and in test [1] (listed as PC) were “did not compete” and “no detectable competition”, respectively.

Consider `O=P(O)(O)O[C@H]1[C@H](O)[C@@H](O)[C@H](OP(=O)(O)O)[C@@H](O)[C@H]1O` [D-I(14)P2], for which the values for the Kd in test [1] (setting [8]) and in test [1] (setting [7]) were more than 50 µM and more than 12 µM, respectively.

Take `O=P(O)(O)OC1C(O)C(O)C(OP(=O)(O)O)C(OP(=O)(O)O)C1O` (single isomer, unassigned) [D-I(134)P3]: the “binding detected by gel filtration” value was “neither Dyn-PH nor PlecN-PH was seen to bind; also recorded: Neither PlecN-PH nor Dyn-PH showed evidence of binding” in test [4], “neither Dyn-PH nor PlecN-PH was seen to bind; also recorded: Neither PlecN-PH nor Dyn-PH showed evidence of binding” in test [5] and “no binding” in test [6]. Besides, the equilibrium dissociation constant (Kd) in test [1] (setting [7]) was more than 12 µM.

Turning to `O=P(O)(O)OC1[C@@H](O)[C@H](O)C(O)[C@H](O)[C@H]1O` (some centres unmarked) [I-2-P, inositol-2-phosphate], the Kd in test [1] (setting [7]) is more than 60 µM.

These data come from patent US7314620B2, “Methods for diagnosis and treatment of PH domain signal transduction disorders” (New York University, priority 1995, dated 2008).
